Measurements taken from paper PMC7251097, “Aspartate/asparagine-β-hydroxylase: a high-throughput mass spectrometric assay for discovery of small molecule inhibitors” (Scientific Reports, 2020).
Values joined by “and” are separate entries in the source; they are usually repeats but may differ in a detail not shown here. Identical values can stand only once. Counter-ions that a name gives are not always drawn. Like-named read-outs stand apart in the source and are kept apart here.

Biological target: T1, His6-AspH315–758 (human aspartate/asparagine-β-hydroxylase, AspH) (Homo sapiens, UniProt Q12797)
T1 construct: N-Terminally His6-tagged human AspH315–758 (His6-AspH315–758) was produced in E. coli BL21 (DE3) cells; made in house; host or cells: E. coli BL21 (DE3), pET-28a(+) vector
T1 sequence (Q12797 315-758): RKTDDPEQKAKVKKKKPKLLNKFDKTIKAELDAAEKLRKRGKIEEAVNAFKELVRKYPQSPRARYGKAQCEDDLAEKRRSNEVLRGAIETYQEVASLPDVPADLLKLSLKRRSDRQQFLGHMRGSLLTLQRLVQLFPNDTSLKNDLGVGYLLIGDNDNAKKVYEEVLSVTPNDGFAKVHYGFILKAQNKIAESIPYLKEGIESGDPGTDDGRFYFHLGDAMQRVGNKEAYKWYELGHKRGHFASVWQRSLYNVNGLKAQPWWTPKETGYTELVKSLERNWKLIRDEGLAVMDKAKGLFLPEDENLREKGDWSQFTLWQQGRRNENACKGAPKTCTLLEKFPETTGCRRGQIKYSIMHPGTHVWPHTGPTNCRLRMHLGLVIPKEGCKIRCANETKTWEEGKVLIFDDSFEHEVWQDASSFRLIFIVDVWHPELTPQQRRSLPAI
Test: SPE-MS AspH inhibition assay (LOPAC screen at fixed 20 μM and IC50 dose-response), hydroxylation of cyclic peptide hFX-CP101–119
Type: biochemical

[1] = LOPAC compound at fixed 20 uM, plate 1, normalised to DMSO and 2,4-PDCA controls
[2] = LOPAC compound at fixed 20 uM, substrate conversion, plate 1
[3] = LOPAC compound at 20uM, plate 2, conversion of substrate peptide
[4] = LOPAC compound at 20uM, plate 2, normalised to DMSO and 2,4-PDCA controls
[5] = LOPAC compound at 20uM, plate 3, conversion of substrate peptide
[6] = LOPAC compound at 20uM, plate 2, normalised to DMSO and 2,4-PDCA controls, read-out: Plate 2 (% inhibition)
[7] = LOPAC Plate 4, compound at 20 uM
[8] = LOPAC Plate 4, compound at 20 uM, substrate conversion

CCCn1c(=O)c2[nH]c(-c3ccc(S(=O)(=O)O)cc3)nc2n(CCC)c1=O [1,3-Dipropyl-8-p-sulfophenylxanthine]
Plate 1 (% inhibition) [1]: -2.36%
Plate 1 (% conversion) [2]: 36.66%

OC[C@H]1NC[C@@H](O)[C@@H]1O [1,4-Dideoxy-1,4-imino-D-arabinitol]
Plate 2 (% conversion) [3]: 35.43%
Plate 2 (% inhibition) [4]: 1.56%

Oc1cccc2c(O)nccc12 [1,5-Isoquinolinediol]
Plate 3 (% conversion) [5]: 40.11%

Cn1c(=O)[nH]c2ncn(C)c2c1=O [1,7-Dimethylxanthine]
Plate 2 (% conversion) [3]: 35.50%
inhibition at 20 µM [6]: 1.36%

NCCCCCCCCCCN [1,10-Diaminodecane]
Plate 2 (% conversion) [3]: 36.39%
inhibition at 20 µM [6]: -1.3%

O.c1cnc2c(c1)ccc1cccnc12 [1,10-Phenanthroline monohydrate, reference compound]
% conversion: 3.10%
inhibition at 20 µM: 97.8%
inhibition at 20 µM (read-out: Inhibition at 20 µM [%]): 97.8%

Cl.c1ccc2c(N3CCNCC3)cccc2c1 [1-(1-Naphthyl)piperazine hydrochloride]
% conversion: 30.74%

Nn1nnc2ccccc21 [1-Aminobenzotriazole]
Plate 1 (% inhibition) [1]: -4.79%
Plate 1 (% conversion) [2]: 37.48%

OC[C@H]1NC[C@H](O)[C@@H](O)[C@@H]1O [1-Deoxynojirimycin hydrochloride]
inhibition at 20 µM (read-out: Plate 2 (% inhibition)): 2.25%

Cl.Cl.Cn1cnc(CCN)c1 [1-Methylhistamine dihydrochloride]
Plate 3 (% conversion): 37.48%

Cn1ccnc1 [1-Methylimidazole]
Plate 3 (% conversion): 20.25%

S=C(Nc1ccccc1)Nc1nccs1 [1-Phenyl-3-(2-thiazolyl)-2-thiourea]
Plate 3 (% conversion): 40.98%

N=C(N)NC(=N)Nc1ccccc1 [1-Phenylbiguanide]
% inhibition [7]: 12.13%
% conversion [8]: 32.33%

FC(F)(F)c1ccccc1-n1ccnc1 [1-[2-(Trifluoromethyl)phenyl]imidazole]
% conversion [8]: 26.55%

c1ccc(-c2ccccn2)nc1 [2,2-Bipyridyl]
Plate 2 (% conversion): 27.94%
Plate 2 (% inhibition) (20 µM): 23.93%

CC(=O)C(C)=NO [2,3-Butanedione monoxime]
Plate 1 (% inhibition) [1]: -3.18%
Plate 1 (% conversion) [2]: 36.94%

CC(=O)C(C)=O [2,3-Butanedione]
Plate 2 (% conversion) [3]: 38.17%
inhibition at 20 µM [6]: -6.62%

COC1=C(OC)C(=O)c2ccccc2C1=O [2,3-Dimethoxy-1,4-naphthoquinone]
Plate 2 (% conversion): 33.76%
Plate 2 (% inhibition) (20 µM): 6.56%

Nc1ccn([C@H]2CC[C@@H](CO)O2)c(=O)n1 [2,3-dideoxycytidine]
Plate 2 (% conversion) [3]: 37.68%
Plate 2 (% inhibition) [4]: -5.15%

O=C(O)c1ccnc(C(=O)O)c1 [2,4-pyridinedicarboxylic acid]
Plate 2 (% inhibition) (100 uM 2,4-PDCA control wells (columns 1, 2), plate 2): 100.30% and 100.62% and 100.70%
% inhibition (LOPAC Plate 3, 100 uM 2,4-PDCA control wells (columns 1, 2)): 99.57% and 99.80%
Plate 1 (% inhibition) (plate 1): 100.60% and 99.95% and 100.29%
Plate 5 (% conversion), 2,4-PDCA control (plate 5, 100 uM 2,4-PDCA controls, plate columns 1, 2): 2.34%

Nc1nc(Cl)nc2c1ncn2[C@@H]1O[C@H](CO)[C@@H](O)[C@H]1O [2-Chloroadenosine]
Plate 1 (% inhibition) [1]: -4.87%
Plate 1 (% conversion) [2]: 37.51%

NCC(O)(CS(=O)(=O)O)c1ccc(Cl)cc1 (stereo not shown) [2-Hydroxysaclofen]
Plate 1 (% inhibition) [1]: -6.82%
Plate 1 (% conversion) [2]: 38.16%

Cc1[nH]c2ccc(O)cc2c1CCN.O=C(O)/C=C\C(=O)O [2-Methyl-5-hydroxytryptamine maleate]
Plate 3 (% conversion): 35.71%

Nc1nc(Nc2ccccc2)nc2c1ncn2[C@@H]1O[C@H](CO)[C@@H](O)[C@H]1O [2-Phenylaminoadenosine]
% inhibition [7]: -10.62%
% conversion [8]: 40.09%

COc1cc2c(cc1O)CC[C@@H]1[C@@H]2CC[C@]2(C)[C@@H](O)CC[C@@H]12 [2-methoxyestradiol]
Plate 3 (% conversion) [5]: 41.59%

O=c1oc(Cl)c(Cl)c2ccccc12 [3,4-Dichloroisocoumarin]
Plate 2 (% conversion): 29.65%
Plate 2 (% inhibition) [4]: 18.85%

O=C(O)Cc1ccc(O)c(O)c1 [3,4-Dihydroxyphenylacetic acid, reference compound]
inhibition at 20 µM (AspH activity, fixed compound concentration 20 μM, initial LOPAC screen, 0.5%v/v DMSO, read-out: Inhibition at 20 µM [%]): 98.6%

O=[N+]([O-])c1cc(O)c(O)c([N+](=O)[O-])c1 [3,5-Dinitrocatechol, reference compound]
Plate 2 (% conversion): 2.07%
Plate 2 (% inhibition) (20 µM): 101.20%

NCCCS(=O)(=O)O.[Na] [3-Amino-1-propanesulfonic acid sodium]
Plate 1 (% inhibition) [1]: -7.08%
Plate 1 (% conversion) [2]: 38.25%

N#CCCN.N#CCCN.O=C(O)/C=C/C(=O)O [3-Aminopropionitrile fumarate]
Plate 1 (% inhibition) [1]: 48.97%
Plate 1 (% conversion) [2]: 19.43%

NCCCP(=O)(O)O [3-Aminopropylphosphonic acid]
Plate 1 (% conversion): 37.53%
Plate 1 (% inhibition): -4.94%

Cc1cn([C@H]2C[C@H](N=[N+]=[N-])[C@@H](CO)O2)c(=O)[nH]c1=O [3-Azido-3-deoxythymidine]
Plate 1 (% inhibition) [1]: -7.24%
Plate 1 (% conversion) [2]: 38.30%

O=[N+]([O-])c1cccc2c(Br)n[nH]c12 [3-Bromo-7-nitroindazole]
Plate 1 (% inhibition) [1]: 1.81%
Plate 1 (% conversion) [2]: 35.26%

N[C@@H](Cc1ccc(O)c(I)c1)C(=O)O [3-Iodo-L-tyrosine]
Plate 3 (% conversion) [5]: 30.44%

CC(C)Cn1c(=O)n(C)c(=O)c2[nH]cnc21 [3-Isobutyl-1-methylxanthine]
Plate 3 (% conversion): 38.13%

Nc1c[n+](N2CCOCC2)no1.[Cl-] [3-Morpholinosydnonimine hydrochloride]
Plate 1 (% inhibition) [1]: 64.67%
Plate 1 (% conversion) [2]: 14.15%

O=C(O)CC[N+](=O)[O-] [3-Nitropropionic acid]
Plate 3 (% conversion): 32.27%

CCCn1c(=O)[nH]c(=O)c2nc[nH]c21 [3-n-Propylxanthine]
Plate 3 (% conversion) [5]: 38.43%

Nc1ccc2c3c(cccc13)C(=O)NC2=O [4-Amino-1,8-naphthalimide]
Plate 1 (% inhibition) [1]: -1.00%
Plate 1 (% conversion) [2]: 36.21%

N=C(N)c1ccc(N)cc1 [4-Aminobenzamidine dihydrochloride]
Plate 1 (% inhibition) [1]: -9.05%
Plate 1 (% conversion) [2]: 38.91%

Nc1ccncc1 [4-Aminopyridine]
Plate 1 (% conversion): 34.98%

C[N+]1(C)CCC(OC(=O)C(c2ccccc2)c2ccccc2)CC1.[I-] [4-DAMP]
% inhibition [7]: -3.63%
% conversion [8]: 37.71%

COc1cc(CC(=O)O)ccc1O [4-Hydroxy-3-methoxyphenylacetic acid]
Plate 2 (% conversion): 38.57%
Plate 2 (% inhibition) (20 µM): -7.80%

Cl.NCCc1ccc(O)cc1 [4-Hydroxyphenethylamine hydrochloride]
% inhibition [7]: -7.46%
% conversion [8]: 39.01%

O=C(O)C=Cc1c[nH]cn1 [4-Imidazoleacrylic acid]
% conversion: 20.39%

Cl.OCc1c[nH]cn1 [4-Imidazolemethanol hydrochloride]
Plate 2 (% conversion): 36.75%
Plate 2 (% inhibition) (20 µM): -2.37%

O=C1NC(=O)C(c2ccccc2)(c2ccccc2)N1 [5,5-Diphenylhydantoin]
Plate 2 (% conversion) [3]: 35.84%
inhibition at 20 µM [6]: 0.33%

O=C(O)c1cc(=O)c2c(Cl)cc(Cl)cc2[nH]1 [5,7-Dichlorokynurenic acid]
Plate 2 (% conversion) [3]: 35.63%
Plate 2 (% inhibition) [4]: 0.98%

CN(C)c1nc(N)c(C(=O)NC(=N)N)nc1Cl [5-(N,N-Dimethyl)amiloride hydrochloride]
Plate 1 (% inhibition) [1]: -6.54%
Plate 1 (% conversion) [2]: 38.07%

N=C(N)NC(=O)c1nc(Cl)c(N2CCCCCC2)nc1N [5-(N,N-hexamethylene)amiloride]
Plate 1 (% inhibition) [1]: -28.14%
Plate 1 (% conversion) [2]: 45.32%

Cl.NCCCCC(=O)O [5-Aminovaleric acid hydrochloride]
Plate 1 (% inhibition) [1]: 15.05%
Plate 1 (% conversion) [2]: 30.82%

NCCc1c[nH]c2ccc(C(N)=O)cc12.O=C(O)/C=C\C(=O)O [5-Carboxamidotryptamine maleate]
Plate 2 (% conversion): 35.62%
Plate 2 (% inhibition) (20 µM): 0.99%

O=C(O)c1cc2cc(F)ccc2[nH]1 [5-Fluoroindole-2-carboxylic acid]
Plate 1 (% conversion): 31.84%
Plate 1 (% inhibition): 12.00%

O=c1[nH]cc(F)c(=O)[nH]1 [5-Fluorouracil]
Plate 2 (% conversion) [3]: 36.11%
inhibition at 20 µM [6]: -0.46%

N[C@@H](Cc1c[nH]c2ccc(O)cc12)C(=O)O [5-Hydroxy-L-tryptophan]
Plate 2 (% conversion) [3]: 37.59%
inhibition at 20 µM [6]: -4.87%

O=C(O)Cc1c[nH]c2ccc(O)cc12 [5-Hydroxyindolacetic acid]
Plate 2 (% inhibition) [4]: -3.79%

CCNC(=O)[C@H]1O[C@@H](n2cnc3c(N)ncnc32)[C@H](O)[C@@H]1O [5-N-Ethylcarboxamidoadenosine]
Plate 2 (% conversion) [3]: 35.71%
Plate 2 (% inhibition) [4]: 0.73%
